17 compounds from US20040116420A1 (priority 2001, published 2004) can be followed below.

The test system of one data set is HSV-1. In words: Antiviral activity, HSV-1 in Vero cells, plaque method. The class given is cell-based. The note with it: Human alphaherpesvirus 1, 20 hours, 90% inhibition of plaque formation. In a few lines:
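This is a virus-yield read-out. The culture medium was frozen at −80° C and thawed, and the plaques it formed were counted. It came from Vero monolayers infected with 50,000 pfu HSV-1 and then exposed to the compound for 20 h at 37° C. EC90 is the concentration inhibiting 90% of plaque formation relative to the untreated infected control.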

A further data set has as its target T1, HSV-1 protease (Human herpesvirus 1, UniProt P10210).
T1 construct: 6xHis (N); made in house; host or cells: baculovirus expression system
In words: Enzymatic assay for HSV-1 protease (assembly) inhibitor, fluorescence polarization. It counts as biochemical. To be noted: read-out: HSV-1 Enzyme inhibition IC50. In a few lines:
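Fluorescence polarization read-out: after avidin stop, cleavage of a biotinylated DTAF-labelled release-site peptide by recombinant N-His6 HSV-1 protease was compared with no-inhibitor wells. Enzyme and compound were preincubated 30 min, then substrate reacted 60 min, all at room temperature, pH 7.4 citrate buffer with TCEP.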
For orientation: In fluorescence polarisation assays a small probe gives low polarisation when free and higher when bound to something large.

A short description of the next data set: Human plasma stability. The class given is in vitro ADME. How it is done: An Assay Method for Human Plasma Stability Human plasma was thawed, 200 μl each thereof was placed in each cell of a 96-well plate immediately thereafter, and 4 μl of solution of each test compound in 1 mM DMF was added thereto. A microplate reader for fluorescence absorption was used to assay changes in fluorescence, and half life was determined based on the changes.

Another data set concerns Vero cells. In words: Cytotoxicity, Vero cells, Alamar Blue. The class given is cell-based. The note with it: 25 μM, 20 hours. In a few lines: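 Living-cell ratio versus untreated control was read by Alamar Blue absorbance after about 6 h of dye incubation. Before that, Vero cells had received 25 μM test compound in 2% FBS-DMEM for 20 hours at 37 °C under 5% CO2.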
For orientation: Resazurin is reduced to fluorescent resorufin, in cell work by metabolically active cells.

Some results are limits rather than exact numbers.

T1 sequence (P10210 1-247): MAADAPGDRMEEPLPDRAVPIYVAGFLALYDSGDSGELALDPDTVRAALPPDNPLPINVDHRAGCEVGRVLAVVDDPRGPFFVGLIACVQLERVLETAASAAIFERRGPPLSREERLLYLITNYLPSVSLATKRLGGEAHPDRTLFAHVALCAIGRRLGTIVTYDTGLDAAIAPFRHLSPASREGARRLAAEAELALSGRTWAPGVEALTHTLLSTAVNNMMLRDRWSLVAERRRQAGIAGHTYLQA

What is called EC90 is the concentration at which the effect reaches the 90% level. Low readings indicate an effect from little substance, high ones a need for much substance. As a reminder, the IC50 is the concentration needed to halve the response being measured. As usually defined, the half-life is the time in which the quantity being followed falls by half. A high value points to slow decline. For `Cc1c(NC(=O)OC(C)(C)C)ccc2nc(NC3(C(=O)N(C)Cc4cccnc4)CCCCC3)oc(=O)c12` [Compound No.120, {5-Methyl-2-[1-(methyl-pyridin-3-ylmethyl-carbamoyl)-cyclohexylamino]-4-oxo-4H-benzo[d][1,3]oxazin-6-yl}-carbamic acid tert-butyl ester], the EC90 in the data set on HSV-1 was found to be 10 µM. Besides, the IC50 at HSV-1 protease amounted to 1.2 µM. Also, the half-life at 19.6 μM in the data set “Human plasma stability” turned out to be 14.9 h.

In turn, `COc1ccc(CC(Nc2nc3ccc(NC(=O)OC(C)(C)C)c(C)c3c(=O)o2)C(=O)NCc2ccccn2)cc1` (stereo not drawn) [compound 230, (2-{2-(4-Methoxy-phenyl)-1-[(pyridin-2-ylmethyl)-carbamoyl]-ethylamino}-5-methyl-4-oxo-4H-benzo[d][1,3]oxazin-6-yl)-carbamic acid tert-butyl ester, reference compound] registered an EC90 with HSV-1 of 6.1 µM. Also, at HSV-1 protease, the IC50 came to 0.4 µM. The compound further registered a half-life at 19.6 μM in the data set “Human plasma stability” of 0.45 h.

In turn, `Cc1c(NC(=O)OC(C)(C)C)ccc2nc(NC(C)(C)C(=O)N(C)CCc3cccnc3)oc(=O)c12` [Compound No.19, (5-Methyl-2-{1-methyl-1-[methyl-(2-pyridin-3-yl-ethyl)-carbamoyl]-ethylamino}-4-oxo-4H-benzo[d][1,3]oxazin-6-yl)-carbamic Acid Tert-Butyl Ester] came in with an EC90 in the data set with HSV-1 of 6.2 µM. For the same compound, the IC50 at HSV-1 protease was 0.3 µM. Further, the “Cell viability (% of control)” value with Vero cells was determined as 106.0%. In addition, the half-life at 19.6 μM in “Human plasma stability” came to 6.2 h.

As for `Cc1c(NC(=O)OC(C)(C)C)ccc2nc(N[C@@H](Cc3ccccc3)C(=O)NCc3ccccn3)oc(=O)c12` [Compound No.20, (5-Methyl-4-oxo-{2-2-phenyl-1S-[(pyridin-2-ylmethyl)-carbamoyl]-ethylamino}-4H-benzo[d][1,3]oxazin-6-yl)-carbamic Acid Tert-Butyl Ester], the 90% effect level in the data set on HSV-1 (EC90) was put at 5.9 µM. For the same compound, on HSV-1 protease, the IC50 is 0.5 µM. The “Cell viability (% of control)” value in the data set with Vero cells was 101.0%. For the same compound, the half-life at 19.6 μM in the data set “Human plasma stability” was found to be 1.47 h.

As for `Cc1c(NC(=O)OC(C)(C)C)ccc2nc(N[C@@H](CCc3ccccc3)C(=O)N(C)Cc3ccccn3)oc(=O)c12` [Compound No.23, {5-Methyl-2-[1S-(methyl-pyridin-2-ylmethyl-carbamoyl)-3-phenyl-propylamino]-4-oxo-4H-benzo[d][1,3]oxazin-6-yl}-carbamic Acid Tert-Butyl Ester], in the data set on HSV-1, the 90% effect concentration (EC90) is below 3.2 µM. Moreover, at HSV-1 protease, the IC50 came out at 0.7 µM. Also, the “Cell viability (% of control)” value in the data set on Vero cells turned out to be 52.0%. Further, the half-life at 19.6 μM in the data set “Human plasma stability” stood at 9.92 h.

`Cc1c(NC(=O)OC(C)(C)C)ccc2nc(N[C@@H](C)C(=O)N(C)Cc3ccccn3)oc(=O)c12` [Compound No.58, {5-Methyl-2-[1S-(methyl-pyridin-2-ylmethyl-carbamoyl)-ethylamino]-4-oxo-4H-benzo[d][1,3]oxazin-6-yl}-carbamic acid tert-butyl ester] displayed an EC90 in the data set with HSV-1 of 10.8 µM. On HSV-1 protease, the IC50 was 1.7 µM. Moreover, the “Cell viability (% of control)” value with Vero cells came to 105.0%. The half-life at 19.6 μM in “Human plasma stability” amounted to 8.85 h.

As for `Cc1c(NC(=O)OC(C)(C)C)ccc2nc(N[C@@H](C)C(=O)N(C)CCc3cccnc3)oc(=O)c12` [Compound No.65, (5-Methyl-2-{1S-[methyl-(2-pyridin-3-yl-ethyl)-carbamoyl]-ethylamino}-4-oxo-4H-benzo[d][1,3]oxazin-6-yl)-carbamic acid tert-butyl ester], the concentration for an effect of 90% (EC90) with HSV-1 is 7.6 µM. Also, the half-maximal inhibitory concentration (IC50) on HSV-1 protease is 0.2 µM. In addition, the “Cell viability (% of control)” value in the data set with Vero cells was 104.0%. The half-life at 19.6 μM in “Human plasma stability” was 3.02 h.

For `Cc1c(NC(=O)c2scc(S(=O)(=O)C(C)C)c2Cl)ccc2nc(NC(C)(C)C(=O)N(C)CCc3ccccn3)oc(=O)c12` [Compound No.180, 3-Chloro-4-(propane-2-sulfonyl)-thiophene-2-carboxylic acid (5-methyl-2-{1-methyl-1-[methyl-(2-pyridin-2-yl-ethyl)-carbamoyl]-ethylamino}-4-oxo-4H-benzo[d][1,3]oxazin-6-yl)-amide], the EC90 with HSV-1 is above 12.5 µM. Also, the IC50 on HSV-1 protease amounted to 1.9 µM. Besides, the “Cell viability (% of control)” value in the data set with Vero cells came out at 87.4%.

`Cc1c(NC(=O)OC(C)(C)C)ccc2nc(N[C@H](C(=O)N(C)CCc3ccncc3)C(C)(C)C)oc(=O)c12` [Compound No.52, (2-{2,2-Dimethyl-1S-[methyl-(2-pyridin-4-yl-ethyl)-carbamoyl]-propylamino}-5-methyl-4-oxo-4H-benzo[d][1,3]oxazin-6-yl)-carbamic acid tert-butyl ester] showed an EC90 with HSV-1 of 6 µM. In addition, the IC50 at HSV-1 protease stood at 49 µM. The “Cell viability (% of control)” value with Vero cells came to 64.5%.

On to `Cc1c(NC(=O)OC(C)(C)C)ccc2nc(N3C[C@H](OCc4ccccc4)C[C@H]3C(=O)NCc3cccnc3)oc(=O)c12` [Compound No.110, (2-{4R-Benzyloxy-2S-[(pyridin-3-ylmethyl)-carbamoyl]-pyrrolidin-1-yl}-5-methyl-4-oxo-4H-benzo[d][1,3]oxazin-6-yl)-carbamic acid tert-butyl ester], for which the concentration for an effect of 90% (EC90) in the data set with HSV-1 came out at 7.4 µM. Further, the IC50 on HSV-1 protease came to 6.3 µM. Also, the “Cell viability (% of control)” value in the data set with Vero cells stood at 71.9%.

`Cc1c(NC(=O)c2ccccc2I)ccc2nc(NC(C)(C)C(=O)N(C)CCc3ccccn3)oc(=O)c12` [Compound No.155, 2-Iodo-N-(5-methyl-2-{1-methyl-1-[methyl-(2-pyridin-2-yl-ethyl)-carbamoyl]-ethylamino}-4-oxo-4H-benzo[d][1,3]oxazin-6-yl)-benzamide] yielded an EC90 in the data set with HSV-1 above 12.5 µM. Besides, the IC50 at HSV-1 protease was 1.5 µM. Also, the “Cell viability (% of control)” value in the data set with Vero cells was 69.1%.

Regarding `Cc1c(NC(=O)OC(C)(C)C)ccc2nc(NC(C)(C)C(=O)N(C)Cc3ccccn3)oc(=O)c12` [Compound No.59, {5-Methyl-2-[1-methyl-1-(methyl-pyridin-2-ylmethyl-carbamoyl)-ethylamino]-4-oxo-4H-benzo[d][1,3]oxazin-6-yl}-carbamic acid tert-butyl ester], the EC90 with HSV-1 worked out at 10.1 µM. Moreover, the IC50 at HSV-1 protease is 1.1 µM. For the same compound, in the data set with Vero cells, the “Cell viability (% of control)” value stood at 106.0%. In the data set “Human plasma stability”, this compound showed a half-life at 19.6 μM of 5.13 h.

For `Cc1cc(C(=O)Nc2ccc3nc(NC(C)(C)C(=O)N(C)CCc4ccccn4)oc(=O)c3c2C)c(C)o1` [Compound No.176, 2,5-Dimethyl-furan-3-carboxylic acid (5-methyl-2-{1-methyl-1-[methyl-(2-pyridin-2-yl-ethyl)-carbamoyl]-ethylamino}-4-oxo-4H-benzo[d][1,3]oxazin-6-yl)-amide], the EC90 with HSV-1 was above 12.5 µM. For the same compound, the IC50 at HSV-1 protease was 1.9 µM. In addition, in the data set with Vero cells, the “Cell viability (% of control)” value is reported as 93.3%.

With `Cc1c(NC(=O)OC(C)(C)C)ccc2nc(NC(C)(C)C(=O)NCCc3ccccn3)oc(=O)c12` [Compound No.35, {5-Methyl-2-[1-methyl-1-(2-pyridin-2-ylethylcarbamoyl)-ethylamino]-4-oxo-4H-benzo[d][1,3]oxazin-6-yl}-carbamic acid tert-butyl ester], the concentration for an effect of 90% (EC90) in the data set with HSV-1 is above 25 µM. Besides, the IC50 at HSV-1 protease worked out at 1.6 µM. Moreover, the “Cell viability (% of control)” value in the data set on Vero cells came to 110.0%.

As for `Cc1c(NC(=O)OC(C)(C)C)ccc2nc(N[C@H](C(=O)NCc3cccnc3)C(C)C)oc(=O)c12` [Compound No.24, (5-Methyl-2-{2-methyl-1S-[(pyridin-3-ylmethyl)-carbamoyl]-propylamino}-4-oxo-4H-benzo[d][1,3]oxazin-6-yl)-carbamic acid tert-butyl ester], in the data set with HSV-1, the EC90 was above 25 µM. Further, the IC50 at HSV-1 protease was above 20 µM. For the same compound, the “Cell viability (% of control)” value in the data set with Vero cells was found to be 99.5%.

The compound `Cc1c(NC(=O)c2ccc3c(c2)OCO3)ccc2nc(NC(C)(C)C(=O)N(C)CCc3ccccn3)oc(=O)c12` [Compound No.193, Benzo[1,3]dioxol-5-carboxylic acid (5-methyl-2-{1-methyl-1-[methyl-(2-pyridin-2-yl-ethyl)-carbamoyl]-ethylamino}-4-oxo-4H-benzo[d][1,3]oxazin-6-yl)-amide] had an EC90 in the data set on HSV-1 of at least 12.5 µM. The IC50 on HSV-1 protease stood at 3.7 µM. The “Cell viability (% of control)” value in the data set with Vero cells is recorded as 67.0%.

The compound `Cc1c(NC(=O)OC(C)(C)C)ccc2nc(N[C@@H](CC(C)C)C(=O)N(C)CCc3cccnc3)oc(=O)c12` [Compound No.68, (5-Methyl-2-{3-methyl-1S-[methyl-(2-pyridin-3-yl-ethyl)-carbamoyl]-butylamino}-4-oxo-4H-benzo[d][1,3]oxazin-6-yl)-carbamic acid tert-butyl ester] displayed an EC90 in the data set with HSV-1 of 6.1 µM. Moreover, the IC50 on HSV-1 protease is 2 µM. The “Cell viability (% of control)” value in the data set with Vero cells is on record as 66.9%.
